Measurements taken from PubChem BioAssay (NCI).
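Values below derive from 48-hour exposures of cells grown in 96-well plates, with endpoints linearly interpolated between the two concentrations bracketing the appropriate inhibition level. At the TGI there is no net growth.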

Experiments:
Assay in all cases: DTP human tumour cell line panel, 48 h
CCRF-CEM leukemia = tested on: CCRF-CEM leukemia
IGROV1 ovarian = tested on: IGROV1 ovarian
OVCAR-3 ovarian = tested on: OVCAR-3 ovarian
NCI-H460 lung = tested on: NCI-H460 lung
SW-620 colon = tested on: SW-620 colon
HL-60(TB) leukemia = tested on: HL-60(TB) leukemia
SK-MEL-28 melanoma = tested on: SK-MEL-28 melanoma
LXFL 529 NSCLC = tested on: LXFL 529 NSCLC
DMS 273 small cell lung = tested on: DMS 273 small cell lung
TK-10 renal = tested on: TK-10 renal
CAKI-1 renal = tested on: CAKI-1 renal
NCI-H522 lung = tested on: NCI-H522 lung
OVCAR-4 ovarian = tested on: OVCAR-4 ovarian
SF-295 CNS = tested on: SF-295 CNS
HCT-15 colon = tested on: HCT-15 colon
LOX IMVI melanoma = tested on: LOX IMVI melanoma
DLD-1 colon = tested on: DLD-1 colon
UACC-257 melanoma = tested on: UACC-257 melanoma
786-0 renal = tested on: 786-0 renal
SNB-75 CNS = tested on: SNB-75 CNS
HT29 colon = tested on: HT29 colon
ACHN renal = tested on: ACHN renal
A549 NSCLC = tested on: A549 NSCLC
MALME-3M melanoma = tested on: MALME-3M melanoma
KM12 colon = tested on: KM12 colon
DMS 114 small cell lung = tested on: DMS 114 small cell lung
M19-MEL melanoma = tested on: M19-MEL melanoma
SN12C renal = tested on: SN12C renal
COLO 205 colon = tested on: COLO 205 colon
HCT-116 colon = tested on: HCT-116 colon
SF-268 CNS = tested on: SF-268 CNS
OVCAR-8 ovarian = tested on: OVCAR-8 ovarian
OVCAR-5 ovarian = tested on: OVCAR-5 ovarian
RPMI-8226 leukemia = tested on: RPMI-8226 leukemia
M14 melanoma = tested on: M14 melanoma
SK-MEL-5 melanoma = tested on: SK-MEL-5 melanoma
SNB-78 CNS = tested on: SNB-78 CNS
SNB-19 CNS = tested on: SNB-19 CNS
A498 renal = tested on: A498 renal
MOLT-4 leukemia = tested on: MOLT-4 leukemia
KM20L2 colon = tested on: KM20L2 colon
SK-OV-3 ovarian = tested on: SK-OV-3 ovarian
NCI-H226 lung = tested on: NCI-H226 lung
U251 CNS = tested on: U251 CNS
UO-31 renal = tested on: UO-31 renal
UACC-62 melanoma = tested on: UACC-62 melanoma
EKVX NSCLC = tested on: EKVX NSCLC
SK-MEL-2 melanoma = tested on: SK-MEL-2 melanoma
HCC-2998 colon = tested on: HCC-2998 colon
K-562 leukemia = tested on: K-562 leukemia
NCI-H23 lung = tested on: NCI-H23 lung
HOP-62 NSCLC = tested on: HOP-62 NSCLC
HOP-18 NSCLC = tested on: HOP-18 NSCLC
RXF 393 renal = tested on: RXF 393 renal
SF-539 CNS = tested on: SF-539 CNS
HOP-92 NSCLC = tested on: HOP-92 NSCLC

Measured: TGI

CNc1nc(N)cc(=O)[nH]1
> 100 µM: CCRF-CEM leukemia | IGROV1 ovarian | OVCAR-3 ovarian | NCI-H460 lung | SW-620 colon | HL-60(TB) leukemia | SK-MEL-28 melanoma | LXFL 529 NSCLC | DMS 273 small cell lung | TK-10 renal | CAKI-1 renal | NCI-H522 lung | OVCAR-4 ovarian | SF-295 CNS | HCT-15 colon | LOX IMVI melanoma | DLD-1 colon | UACC-257 melanoma | 786-0 renal | SNB-75 CNS | HT29 colon | ACHN renal | A549 NSCLC | MALME-3M melanoma | KM12 colon | DMS 114 small cell lung | M19-MEL melanoma | SN12C renal | COLO 205 colon | HCT-116 colon | SF-268 CNS | OVCAR-8 ovarian | OVCAR-5 ovarian | RPMI-8226 leukemia | M14 melanoma | SK-MEL-5 melanoma | SNB-78 CNS | SNB-19 CNS | A498 renal | MOLT-4 leukemia | KM20L2 colon | SK-OV-3 ovarian | NCI-H226 lung | U251 CNS | UO-31 renal | UACC-62 melanoma | EKVX NSCLC | SK-MEL-2 melanoma | HCC-2998 colon | K-562 leukemia | NCI-H23 lung | HOP-62 NSCLC

CC1(C=O)C(=O)CCC2(C)C3CC(=O)OC3CCC12 (centres undefined)
> 100 µM: CCRF-CEM leukemia | IGROV1 ovarian | OVCAR-3 ovarian | NCI-H460 lung | SW-620 colon | HL-60(TB) leukemia | SK-MEL-28 melanoma | LXFL 529 NSCLC | DMS 273 small cell lung | TK-10 renal | CAKI-1 renal | NCI-H522 lung | OVCAR-4 ovarian | SF-295 CNS | HCT-15 colon | LOX IMVI melanoma | DLD-1 colon | UACC-257 melanoma | 786-0 renal | SNB-75 CNS | HT29 colon | ACHN renal | A549 NSCLC | MALME-3M melanoma | KM12 colon | DMS 114 small cell lung | M19-MEL melanoma | HOP-18 NSCLC | SN12C renal | COLO 205 colon | RXF 393 renal | SF-268 CNS | OVCAR-8 ovarian | OVCAR-5 ovarian | RPMI-8226 leukemia | SF-539 CNS | M14 melanoma | SK-MEL-5 melanoma | SNB-19 CNS | HOP-92 NSCLC | MOLT-4 leukemia | KM20L2 colon | SK-OV-3 ovarian | U251 CNS | UO-31 renal | UACC-62 melanoma | EKVX NSCLC | SK-MEL-2 melanoma | HCC-2998 colon | K-562 leukemia | NCI-H23 lung | HOP-62 NSCLC
